Experimental data reported in patent publication US12202805B2, “Process for preparing (5S)-{[2-(4-carboxyphenyl)ethyl] |2-(2-{|3-chloro-4'-(trifluoromethyl)biphenyl-4-yl]methoxy}phenyl)ethyl]aminol-5,6,7,8-tetrahydroquinoline-2-carboxylic acid and its crystalline forms for use as pharmaceutically active compound” (Bayer Aktiengesellschaft, priority 2021, dated 2025).

Experiments:
[1] = tested on: thromboxane A2 challenged PAH-minipig; test: Haemodynamics in the anesthetized thromboxane challenged minipig, intratracheal dry powder (PAP, BP); assay type: in vivo, Göttingen Minipigs
Experimental: (§1) Healthy Göttingen Minipigs® Ellegaard (Ellegaard, Denmark) of both sexes and having a weight of 2-6 kg were used. The animals were sedated by i.m. administration of about 25 mg/kg ketamine and about 10 mg/kg azaperone. Anaesthesia was initiated by i.v. administration of about 2 mg/kg ketamine and about 0.3 mg/kg midazolam. Maintenance of anaesthesia was by i.v. administration of about 7.5-30 mg/kg/h ketamine and about 1-4 mg/kg/h midazolam (rate of infusion 1-4 ml/kg/h) and about 150 μg/kg/h pancuronium bromide (for example Pancuronium-Actavis). After intubation, the animals were ventilated by the ventilator at a constant respiratory volume (10-12 ml/kg, 35 breaths/min; Avea®, Viasys Healthcare, USA, or Engström Carestation, GE Healthcare, Freiburg, Germany) such that an end-tidal CO2 concentration of about 5% was achieved. Ventilation was performed with room air, enriched with about 40% oxygen (normoxia). For the measurement of the haemodynamic parameters such as pulmonary arterial pressure (PAP), blood pressure (BP) and heart rate (HR), catheters were inserted into the carotid artery to measure the blood pressure, and a Swan-Ganz® catheter was introduced in a flow-directed manner via the jugular vein into the pulmonary artery. The haemodynamic signals were recorded and evaluated by means of pressure transducers (Combitransducer, B. Braun, Melsungen, Germany)/amplifiers and Ponemah® as data acquisition software.
As reference pure Lactose vehicle was applied in the beginning of each experiment.

[2] = Protein binding via Transil assay, human plasma; assay type: in vitro ADME
Experimental: Protein Binding of Comparative Example 11 and Comparative Example 1 was Analyzed Via Transil Assay, Described Below.
The distribution of a test substance between Transil® (phosphatidylcholine lipid bilayers immobilized on silica beads) and plasma is a characteristic feature of any pharmaceutical compound and is dependent on its extent of binding to plasma proteins. By comparing the distribution between Transil® and buffer with the distribution between Transil® and plasma of any species of interest, the unbound fraction in the plasma of the respective animal species can be calculated in vitro. The respective plasma and buffer concentrations were determined via a radioactivity analysis. A detailed description of the method and its validation was published by Schuhmacher et al. (2).

[3] = tested on: thromboxane A2 challenged PAH-minipig; test: Haemodynamics in the anesthetized thromboxane challenged minipig, inhaled nebulized solution (PAP, BP); assay type: in vivo, Göttingen Minipigs
Experimental: E-1 Haemodynamics in the Anesthetized Thromboxane Challenged Minipig
Lung Selectivity and Duration of Action
as §1
After the instruments have been placed into the animals, continuous infusion of a thromboxane A2 analog was initiated to increase the pulmonary arterial pressure. About 0.3-0.75 μg/kg/min of 9,11-didesoxy-9α,11α-epoxymethanoprostaglandine F2α (U-44069; Sigma, cat. no. D0400, or Cayman Chemical Company, cat. no. 16440), dissolved in physiological saline, were infused to achieve an increase of the mean pulmonary arterial pressure to values of over 25 mmHg. 30 minutes after the start of the infusion, a plateau was reached, and the experiment was started.
The test substances were administered as i.v. infusion or by inhalation. For the preparation of the solution for inhalation, the following procedure was adopted: For an animal having a weight of 4 kg, to prepare the stock solution (300 μg/kg), 1.2 mg of the test compound were weighed out and dissolved in a total volume of 3 ml (1% DMSO, 99% 0.2% strength citric acid solution, 1 n aqueous sodium hydroxide solution to adjust the pH to 8). The solution was then diluted to the concentration employed using 0.2% strength citric acid which had been adjusted to pH 8 beforehand with aqueous sodium hydroxide solution. In each test, 3 ml of the solution of test compound per 4 kg animal were nebulized in the inhalation arm of the respiratory circuit using the Aeroneb® Pro nebulizer system. The mean nebulization time was about 7 min from the start of the nebulization.
With respect to a prediction of the duration of action for human studies comparative example 11 was compared in the PAH minipig model after inhaled application to Ventavis® (=Iloprost, 10 μg/kg nominal dose), which we used as a clinical reference. […] Therefore, the duration of action is more than 6 times longer compared to Ventavis in this preclinical animal model.

[4] = Storage stability of pseudopolymorphic forms (XRPD); assay type: physicochemical; conditions: for Result (form after storage): monohydrate II

## O=C(O)c1ccc(CCN(CCc2ccccc2OCc2ccc(-c3ccc(C(F)(F)F)cc3)cc2Cl)[C@H]2CCCc3nc(C(=O)O)ccc32)cc1 [comparative example 11, (5S)-5-{[2-(4-carboxyphenyl)ethyl][2-(2-{[3-chloro-4′-(trifluoromethyl)[biphenyl]-4-yl]methoxy}phenyl)ethyl]amino}-5,6,7,8-tetrahydroquinoline-2-carboxylic acid]
[1]; dry powder i.t., lower doses not applicable
  MED: ≤ 7.5 µg/kg
[2]
  free fraction, times lower than comparative example 1: 2 times
[3]; inhaled, all doses (10, 30, 100 μg/kg nominal dose), 240 min observation interval
  duration of dose dependent efficacy (PAP): ≥ 240 min
[3]; nebulized liquid formulations
  time of maximum effect after start inhalation: about 90 min
[3]; preclinical animal model
  duration of action, times longer compared to Ventavis: more than 6 times

## O=C(O)c1ccc(CCN(CCc2ccccc2OCc2ccc(-c3ccc(C(F)(F)F)cc3)cc2Cl)[C@H]2CCCc3nc(C(=O)O)ccc32)cc1 [example 2, (5S)—{[2-(4-Carboxyphenyl)ethyl][2-(2-{[3-chloro-4′-(trifluoromethyl)biphenyl-4-yl]methoxy}phenyl)-ethyl]amino}-5,6,7,8-tetrahydroquinoline-2-carboxylic acid as Monohydrate II]
[1]; 375 μg/kg i.t., within the last hour of the observation interval
  systemic blood pressure: slightly affected
[1]; micronized hydrates, 1.5 mg/4 kg (=375 μg/kg) i.t.
  efficacy with regard to PAP reduction as well as systemic BP reduction: comparable efficacy
[1]; time 80 min, 375 μg/kg i.t.
  BP, % changes vs. prevalues: 100.0%
[1]; time 130 min, 375 μg/kg i.t.
  BP, % changes vs. prevalues: 97.0%
[1]; time 140 min, 375 μg/kg i.t.
  BP, % changes vs. prevalues: 97.0%
[1]; time 200 min, 375 μg/kg i.t.
  BP, % changes vs. prevalues: 97.0%
[4]; brown glass closed with paper filter disc, 40° C., 75% relative humidity
  Result (form after storage): monohydrate I
[4]; brown glass snap on closure, 25° C., 60% relative humidity, one, three and six months
  Result (form after storage): monohydrate II
[4]; polyethylene, 25° C., 60% relative humidity
  Result (form after storage): monohydrate I
[4]; polyethylene, 40° C., 75% relative humidity
  Result (form after storage): monohydrate I
[2]; read-out: plasma fu (fraction unbound)
  fraction unbound: 0.000764
[3]; nebulized solution, inhaled
  minimal effective nominal dose (5% reduction in PAP): 3 µg/kg

## O=C(O)c1ccc(CCN(CCc2ccccc2OCc2ccc(-c3ccc(C(F)(F)F)cc3)cc2Cl)[C@H]2CCCc3nc(C(=O)O)ccc32)cc1 [example 4, (5S)—{[2-(4-Carboxyphenyl)ethyl][2-(2-{[3-chloro-4′-(trifluoromethyl)biphenyl-4-yl]methoxy}phenyl)-ethyl]amino}-5,6,7,8-tetrahydroquinoline-2-carboxylic acid as Monohydrate I]
[4]; under the storage conditions of Table 15
  storage stability: stable
